Results from patent US9181214B2 (RHIZEN PHARMACEUTICALS SA, priority 2011, dated 2015).

Molecular target: T1, human GPR119 (Homo sapiens, UniProt Q8TDV5)
T1 construct: expressed in transfected cells; host or cells: HEK293 (transient transfection, Lipofectamine 2000)
T1 sequence (Q8TDV5 1-335): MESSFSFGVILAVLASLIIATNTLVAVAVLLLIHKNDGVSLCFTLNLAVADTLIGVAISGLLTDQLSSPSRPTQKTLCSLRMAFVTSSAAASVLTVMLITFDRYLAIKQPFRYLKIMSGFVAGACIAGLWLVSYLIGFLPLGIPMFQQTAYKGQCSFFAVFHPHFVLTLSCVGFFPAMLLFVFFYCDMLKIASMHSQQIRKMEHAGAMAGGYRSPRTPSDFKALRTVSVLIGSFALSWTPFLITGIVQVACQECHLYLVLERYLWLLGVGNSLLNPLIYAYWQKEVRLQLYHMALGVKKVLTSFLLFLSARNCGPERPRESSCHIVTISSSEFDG
Assay: In vitro cyclic AMP assay (Cisbio HTRF) in HEK293 cells transfected with human GPR119
Type: cell-based
Settings: cAMP; for activation at 10 µM: 1 h, % Induction @ 10 μM; for EC50: Emax varies between 65 to 80%
Description: A. In Vitro Cyclic AMP Assay:
cAMP measurements were done using a Cisbio dynamic 2 HTRF kit (Cisbio, Bedford, Mass.) according to the manufacturer's protocol. Briefly, HEK293 cells (0.2×10^6/well) were plated in a 24 well plate and incubated overnight at 37° C. Cells were transfected with either empty vector DNA or human GPR119 expression plasmid DNA using Lipofectamine 2000 (Invitrogen). After 24 h, transfected cells were harvested, counted and plated at 1000 cells/5 ul in a black 384 welled small volume plate. Cells were treated with desired concentrations of compounds and incubated for 60 min at room temperature. Lysis buffer containing cAMP-d2 and cryptate conjugate were added and incubated for 1 h. HRTF ratio was measured on a microplate reader (BMG Labtech., Germany) at an excitation wavelength of 337 nm and emission wavelengths of 665 and 620 nm with an integration time of 400 μsec. Data were analyzed using Graphpad Prism (Graphpad software; San Diego Calif.) for EC50 determination.
The results are as given in Table I as % Induction@ 10 μM, Table II as % Induction@ 10 μM and EC 50 in nM

| SMILES | activation at 10 µM (Table II) | activation at 10 µM (Table I) | EC50 (Table I) | EC50 (Table II) |
| --- | --- | --- | --- | --- |
| CC(C)(C)OC(=O)N1CCC(c2cnc3oc(-c4ccc(C(F)(F)F)cc4)nc3c2)CC1 [EXAMPLE-87, Tert-butyl 4-{2-[4-(trifluoromethyl)phenyl]oxazolo[5,4-b]pyridin-6-yl}piperidine-1-carboxylate] | 47.3% | – | – | – |
| CC(C)(C)OC(=O)N1CCC(c2nc3cc(-c4ccc(S(C)(=O)=O)cc4F)ccc3o2)CC1 [EXAMPLE-4, tert-butyl 4-{5-[2-fluoro-4-(methylsulfonyl)phenyl]benzo[d]oxazol-2-yl}piperidine-1-carboxylate] | – | 74.2% | 50 to 100 nM | – |
| CCOC(=O)N1CCC(c2ccc3nc(-c4ccc(S(C)(=O)=O)cc4F)oc3c2)CC1 [EXAMPLE-72, Ethyl 4-{2-[2-fluoro-4-(methylsulfonyl)phenyl]benzo[d]oxazol-6-yl}piperidine-1-carboxylate] | 81.6% | – | – | ≤ 25 nM |
| CC(C)(C)OC(=O)N1CCC(c2ccc3oc(-c4ccc(C(F)(F)F)cc4)nc3c2)CC1 [EXAMPLE-70, Tert-butyl 4-{2-[4-(trifluoromethyl)phenyl]benzo[d]oxazol-5-yl}piperidine-1-carboxylate] | 64.7% | – | – | ≤ 25 nM |
| CC(C)(C)OC(=O)N1CC=C(c2ccc3[nH]c(-c4ccc(S(C)(=O)=O)cc4F)nc3c2)CC1 [EXAMPLE-56, Tert-butyl 4-{2-[2-fluoro-4-(methylsulfonyl)phenyl]-1H-benzo[d]imidazol-5-yl}-5,6-dihydropyridine-1(2H)-carboxylate] | 38.5% | – | – | – |
| CS(=O)(=O)c1ccc(-c2nc3cc(C4CCN(S(=O)(=O)CCCO)CC4)ccc3o2)c(F)c1 [EXAMPLE-80, 3-{4-[2-(2-fluoro-4-(methylsulfonyl)phenyl)benzo[d]oxazol-5-yl]piperidin-1-ylsulfonyl}propan-1-ol] | 26.4% | – | – | – |
| CC(C)(C)OC(=O)N1CCC(c2ccc3[nH]c(-c4ccc(S(C)(=O)=O)cc4F)nc3c2)CC1 [EXAMPLE-57, Tert-butyl 4-{2-[2-fluoro-4-(methylsulfonyl)phenyl]-1H-benzo[d]imidazol-5-yl}piperidine-1-carboxylate] | 47% | – | – | – |
| CCCS(=O)(=O)N1CCC(c2nc3cc(-c4ccc(C(N)=O)c(F)c4)ccc3o2)CC1 [EXAMPLE-53, 2-fluoro-4-{2-[1-(propylsulfonyl)piperidin-4-yl]benzo[d]oxazol-5-yl}benzamide] | – | 39.9% | – | – |
| CC(C)(C)OC(=O)N1CCC(c2nc3cc(-c4ccc(-n5cnnn5)c(F)c4)ccc3o2)CC1 [EXAMPLE-15, Tert-butyl 4-{5-[3-fluoro-4-(1H-tetrazol-1-yl)phenyl]benzo[d]oxazol-2-yl}piperidine-1-carboxylate] | – | 77.7% | 100 to 500 nM | – |
| CC(C)C(=O)N1CCC(c2nc3cc(-c4ccc(-n5cnnn5)cc4F)ccc3o2)CC1 [EXAMPLE-32, 1-{4-[5-(2-fluoro-4-(1H-tetrazol-1-yl)phenyl)benzo[d]oxazol-2-yl]piperidin-1-yl}-2-methylpropan-1-one] | – | 63.9% | 50 to 100 nM | – |
| CC(C)(C)OC(=O)N1CCC(c2nc3cc(-c4ccc(C#N)c(F)c4)ccc3o2)CC1 [EXAMPLE-17, Tert-butyl 4-[5-(4-cyano-3-fluorophenyl)benzo[d]oxazol-2-yl]piperidine-1-carboxylate] | – | 41.5% | – | – |
| CCc1cnc(N2CCC(c3ccc4oc(-c5ccc(S(C)(=O)=O)cc5F)nc4c3)CC2)nc1 [EXAMPLE-62, 5-[1-(5-ethylpyrimidin-2-yl)piperidin-4-yl]-2-[2-fluoro-4-(methylsulfonyl)phenyl]benzo[d]oxazole] | 59.3% | – | – | < 500 nM |
| CCc1cnc(N2CCC(c3ccc4[nH]c(-c5ccc(S(C)(=O)=O)cc5F)nc4c3)CC2)nc1 [EXAMPLE-58, 5-[1-(5-ethylpyrimidin-2-yl)piperidin-4-yl]-2-[2-fluoro-4-(methylsulfonyl)phenyl]-1H-benzo[d]imidazole] | 32.2% | – | – | – |
| CCC(CC)OC(=O)N1CCC(c2nc3cc(-c4ccc(-n5cnnn5)cc4F)ccc3o2)CC1 [EXAMPLE-25, Pentan-3-yl 4-{5-[2-fluoro-4-(1H-tetrazol-1-yl)phenyl]benzo[d]oxazol-2-yl}piperidine-1-carboxylate] | – | 63.4% | – | – |
| CC(C)(C)OC(=O)N1CCC(c2nc3cc(-c4ccc(-n5cnnn5)cc4)ccc3o2)CC1 [EXAMPLE-11, Tert-butyl 4-{5-[4-(1H-tetrazol-1-yl)phenyl]benzo[d]oxazol-2-yl}piperidine-1-carboxylate] | – | 70.1% | – | – |
| CC(C)(C)OC(=O)N1CC=C(c2ccc3oc(-c4ccc(S(C)(=O)=O)cc4F)nc3c2)CC1 [EXAMPLE-59, Tert-butyl 4-{2-[2-fluoro-4-(methylsulfonyl)phenyl]benzo[d]oxazol-5-yl}-5,6-dihydropyridine-1(2H)-carboxylate] | 63.8% | – | – | – |
| CC(C)(C)OC(=O)N1CCC(c2nc3cc(-c4ccc(C(N)=O)c(Cl)c4)ccc3o2)CC1 [EXAMPLE-20, Tert-butyl 4-[5-(4-carbamoyl-3-chlorophenyl)benzo[d]oxazol-2-yl]piperidine-1-carboxylate] | – | 73.9% | 25 to 50 nM | – |
| Fc1cc(-n2cnnn2)ccc1-c1ccc2oc(C3CCNCC3)nc2c1 [EXAMPLE-26, 5-[2-fluoro-4-(1H-tetrazol-1-yl)phenyl]-2-(piperidin-4-yl)benzo[d]oxazole] | – | 74% | – | – |
| CC(C)(C)OC(=O)N1CCC(c2cc(F)c3oc(-c4ccc(S(C)(=O)=O)cc4F)nc3c2)CC1 [EXAMPLE-63, Tert-butyl 4-{7-fluoro-2-[2-fluoro-4-(methylsulfonyl)phenyl]benzo[d]oxazol-5-yl}piperidine-1-carboxylate] | 56.6% | – | – | – |
| CC(C)c1noc(C2CCN(c3ccc4oc(-c5ccc(S(C)(=O)=O)cc5F)nc4c3)CC2)n1 [EXAMPLE-83, 2-[2-fluoro-4-(methylsulfonyl)phenyl]-5-[4-(3-isopropyl-1,2,4-oxadiazol-5-yl)piperidin-1-yl]benzo[d]oxazole] | 57.6% | – | – | – |
| CCOC(=O)N1CCC(c2ccc3oc(-c4ccc(S(C)(=O)=O)cc4F)nc3c2)CC1 [EXAMPLE-69, Ethyl 4-{2-[2-fluoro-4-(methylsulfonyl)phenyl]benzo[d]oxazol-5-yl}piperidine-1-carboxylate] | 71.8% | – | – | 25 to 50 nM |
| CC(C)OC(=O)N1CCC(c2nc3cc(-c4ccc(-n5cnnn5)cc4F)ccc3o2)CC1 [EXAMPLE-14, Isopropyl 4-{5-[2-fluoro-4-(1H-tetrazol-1-yl)phenyl]benzo[d]oxazol-2-yl}piperidine-1-carboxylate] | – | 68.6% | 25 to 50 nM | – |
| CC(C)(C)OC(=O)N1CCC(c2nc3ccc(-c4ccc(S(C)(=O)=O)cc4F)cc3o2)CC1 [EXAMPLE-6, Tert-butyl 4-{6-[2-fluoro-4-(methylsulfonyl)phenyl]benzo[d]oxazol-2-yl}piperidine-1-carboxylate] | – | 73.2% | 25 to 50 nM | – |
| CC(C)(C)OC(=O)N1CCC(c2nc3cc(-c4ccc(C#N)cc4)ccc3o2)CC1 [EXAMPLE-9, Tert-butyl 4-[5-(4-cyanophenyl)benzo[d]oxazol-2-yl]piperidine-1-carboxylate] | – | 46.8% | – | – |
| CC(C)(C)OC(=O)N1CCC(c2nc3cc(-c4ccc(-c5nnn[nH]5)c(F)c4)ccc3o2)CC1 [EXAMPLE-19, Tert-butyl 4-{5-[3-fluoro-4-(1H-tetrazol-5-yl)phenyl]benzo[d]oxazol-2-yl}piperidine-1-carboxylate] | – | 37.2% | – | – |
| CC(C)OC(=O)N1CCC(c2nc3cc(-c4ccc(-n5cnnn5)c(F)c4)ccc3o2)CC1 [EXAMPLE-18, Isopropyl 4-{5-[3-fluoro-4-(1H-tetrazol-1-yl)phenyl]benzo[d]oxazol-2-yl}piperidine-1-carboxylate] | – | 36.4% | – | – |
| CC(C)OC(=O)N1CCC(c2nc3cc(-c4ccc(C(F)(F)F)cc4)ccc3o2)CC1 [EXAMPLE-27, Isopropyl 4-{5-[4-(trifluoromethyl)phenyl]benzo[d]oxazol-2-yl}piperidine-1-carboxylate] | – | 46.5% | – | – |
| CC(C)(C)OC(=O)N1CCC(c2nc3cc(-c4ccc(C(N)=O)c(F)c4)ccc3o2)CC1 [EXAMPLE-21, Tert-butyl 4-[5-(4-carbamoyl-3-fluorophenyl)benzo[d]oxazol-2-yl]piperidine-1-carboxylate] | – | 59% | 50 to 100 nM | – |
| CC(C)OC(=O)N1CCC(c2nc3cc(-c4ccc(C=O)cc4)ccc3o2)CC1 [EXAMPLE-28, Isopropyl 4-[5-(4-formylphenyl)benzo[d]oxazol-2-yl]piperidine-1-carboxylate] | – | 45.4% | – | – |
| CC(C)OC(=O)N1CCC(c2nc3cc(-c4ccc(C(N)=O)c(F)c4)ccc3o2)CC1 [EXAMPLE-31, Isopropyl 4-[5-(4-carbamoyl-3-fluorohenyl)benzo[d]oxazol-2-yl]piperidine-1-carboxylate] | – | 80.4% | ≤ 25 nM | – |
